According to US20250144223A1, “PROTEIN DEGRADATION COMPOUND BASED ON NAMPT TARGET PROTEIN AND APPLICATION THEREOF” (GLUETACS THERAPEUTICS (SHANGHAI) CO., LTD., priority 2021, published 2025):

Tested on: Jurkat
Assay: CellTiter-Glo Luminescent Cell Viability Assay, half inhibitory concentration (IC50) on tumor cell proliferation
Assay type: cell-based
Conditions: Homo sapiens, Jurkat cells, 72 h treatment
Description: The tumor cells used herein were cultured in a cell culture medium at 37° C. in an incubator with 5% CO2, where the cell culture medium was supplemented with 10% FBS, as well as penicillin at a final concentration of 100 U/mL and streptomycin at a final concentration of 100 μg/mL. Prior to experimentation, all cells used were identified as correct cells by STR cells, and were negative for mycoplasma through routine testing.
IC50 values of the compounds of the present disclosure (including the compounds in Table 1 and compounds of examples) were measured using the CellTiter-Glo® Luminescent Cell Viability Assay kit from Promega Corporation. Assay details are as follows: Cells were seeded in 100 μL RPMI1640 medium containing serum at a density of 20,000 cells/well. After 24 h, the inoculated cells were treated with the compounds of the present disclosure which were serially diluted. After the cells were treated with the compounds of the present disclosure for 72 h, the CellTiter-Glo® reagent was added to the culture medium for cell viability assessment according to the instructions provided with the kit. DMSO served as the negative control, and FK866 inhibitor was used as the positive control, both treated with the same protocol as the compounds of the present disclosure. The growth inhibition of the compounds of the present disclosure on cells was plotted by Prism Graphpad software, and the IC50 values of the compounds of the present disclosure were calculated therefrom.

SMILES	IC50 [µM]
O=C(/C=C/c1cccnc1)NCCCCC1CCN(C(=O)c2ccc(N3CCN(C(=O)COCCOCCSc4cccc5c4C(=O)N(C4CCC(=O)NC4=O)C5=O)CC3)cc2)CC1 (stereo not drawn) [SIAIS631112, (E)-N-(4-(1-(4-(4-(2-(2-(2-((2-(2,6-dioxopiperidin-3-yl)-1,3-dioxoisoindolin-4-yl)thio)ethoxy)ethoxy)acetyl)piperazin-1-yl)benzoyl)piperidin-4-yl)butyl)-3-(pyridin-3-yl)acrylamide]	0.0667
O=C(/C=C/c1cccnc1)NCCCCC1CCN(C(=O)c2ccc(N3CCN(C(=O)COCCOCCOCCSc4cccc5c4C(=O)N(C4CCC(=O)NC4=O)C5=O)CC3)cc2)CC1 (stereo not drawn) [SIAIS631113, (E)-N-(4-(1-(4-(4-(2-(2-(2-(2-((2-(2,6-dioxopiperidin-3-yl)-1,3-dioxoisoindolin-4-yl)thio)ethoxy)ethoxy)ethoxy)acetyl)piperazin-1-yl)benzoyl)piperidin-4-yl)butyl)-3-(pyridin-3-yl)acrylamide]	0.0681
O=C(/C=C/c1cccnc1)NCCCCC1CCN(C(=O)c2ccc(N3CCN(C(=O)COCCOCCOCCOCCSc4cccc5c4C(=O)N(C4CCC(=O)NC4=O)C5=O)CC3)cc2)CC1 (stereo not drawn) [SIAIS631114, (E)-N-(4-(1-(4-(4-(14-((2-(2,6-dioxopiperidin-3-yl)-1,3-dioxoisoindolin-4-yl)thio)-3,6,9,12-tetraoxatetradecanoyl)piperazin-1-yl)benzoyl)piperidin-4-yl)butyl)-3-(pyridin-3-yl)acrylamide]	0.0665
O=C(/C=C/c1cccnc1)NCCCCC1CCN(C(=O)c2ccc(N3CCN(C(=O)COCCOCCOCCOCCOCCSc4cccc5c4C(=O)N(C4CCC(=O)NC4=O)C5=O)CC3)cc2)CC1 (stereo not drawn) [SIAIS631115, (E)-N-(4-(1-(4-(4-(17-((2-(2,6-dioxopiperidin-3-yl)-1,3-dioxoisoindolin-4-yl)thio)-3,6,9,12,15-pentaoxaheptadecanoyl)piperazin-1-yl)benzoyl)piperidin-4-yl)butyl)-3-(pyridin-3-yl)acrylamide]	0.0742
O=C(/C=C/c1cccnc1)NCCCCC1CCN(C(=O)c2ccc(N3CCN(C(=O)COCCOCCOCCOCCOCCSc4cccc5c4CN(C4CCC(=O)NC4=O)C5=O)CC3)cc2)CC1 (stereo not drawn) [SIAIS631118, (E)-N-(4-(1-(4-(4-(17-((2-(2,6-dioxopiperidin-3-yl)-1-oxoisoindolin-4-yl)thio)-3,6,9,12,15-pentaoxaheptadecanoyl)piperazin-1-yl)benzoyl)piperidin-4-yl)butyl)-3-(pyridin-3-yl)acrylamide]	0.0666
O=C(/C=C/c1cccnc1)NCCCCC1CCN(C(=O)c2ccc(N3CCN(CCCC#Cc4cccc5c4C(=O)N(C4CCC(=O)NC4=O)C5=O)CC3)cc2)CC1 (stereo not drawn) [SIAIS631119, (E)-N-(4-(1-(4-(4-(5-(2-(2,6-dioxopiperidin-3-yl)-1,3-dioxoisoindolin-4-yl)pent-4-yn-1-yl)piperazin-1-yl)benzoyl)piperidin-4-yl)butyl)-3-(pyridin-3-yl)acrylamide]	0.623
O=C(/C=C/c1cccnc1)NCCCCC1CCN(C(=O)c2ccc(N3CCN(CCCCC#Cc4cccc5c4C(=O)N(C4CCC(=O)NC4=O)C5=O)CC3)cc2)CC1 (stereo not drawn) [SIAIS631120, (E)-N-(4-(1-(4-(4-(6-(2-(2,6-dioxopiperidin-3-yl)-1,3-dioxoisoindolin-4-yl)hex-5-yn-1-yl)piperazin-1-yl)benzoyl)piperidin-4-yl)butyl)-3-(pyridin-3-yl)acrylamide]	0.071
O=C(/C=C/c1cccnc1)NCCCCC1CCN(C(=O)c2ccc(N3CCN(CCCCCCC#Cc4cccc5c4C(=O)N(C4CCC(=O)NC4=O)C5=O)CC3)cc2)CC1 (stereo not drawn) [SIAIS631121, (E)-N-(4-(1-(4-(4-(8-(2-(2,6-dioxopiperidin-3-yl)-1,3-dioxoisoindolin-4-yl)oct-7-yn-1-yl)piperazin-1-yl)benzoyl)piperidin-4-yl)butyl)-3-(pyridin-3-yl)acrylamide]	0.0639
O=C(/C=C/c1cccnc1)NCCCCC1CCN(C(=O)c2ccc(N3CCC(N4CCNCC4)CC3)nn2)CC1 [SIAIS631135, (E)-N-(4-(1-(6-(4-(piperazin-1-yl)piperidin-1-yl)pyridazine-3-carbonyl)piperidin-4-yl)butyl)-3-(pyridin-3-yl)acrylamide]	0.725
O=C(/C=C/c1cccnc1)NCCCCC1CCN(C(=O)c2ccc(C3CCN(CCCCCC#Cc4cccc5c4CN(C4CCC(=O)NC4=O)C5=O)CC3)cc2)CC1 (stereo not drawn) [SIAIS631139, (E)-N-(4-(1-(4-(1-(7-(2-(2,6-dioxopiperidin-3-yl)-1-oxoisoindolin-4-yl)hept-6-yn-1-yl)piperidin-4-yl)benzoyl)piperidin-4-yl)butyl)-3-(pyridin-3-yl)acrylamide]	0.00523
O=C(/C=C/c1cccnc1)NCCCCC1CCN(C(=O)c2ccc(C3CCN(CCCCCCC#Cc4cccc5c4CN(C4CCC(=O)NC4=O)C5=O)CC3)cc2)CC1 (stereo not drawn) [SIAIS631140, (E)-N-(4-(1-(4-(1-(8-(2-(2,6-dioxopiperidin-3-yl)-1-oxoisoindolin-4-yl)oct-7-yn-1-yl)piperidin-4-yl)benzoyl)piperidin-4-yl)butyl)-3-(pyridin-3-yl)acrylamide]	0.0097
O=C(/C=C/c1cccnc1)NCCCCC1CCN(C(=O)c2ccc(C3CCN(CCCCSc4cccc5c4CN(C4CCC(=O)NC4=O)C5=O)CC3)cc2)CC1 (stereo not drawn) [SIAIS631141, (E)-N-(4-(1-(4-(1-(4-((2-(2,6-dioxopiperidin-3-yl)-1-oxoisoindolin-4-yl)thio)butyl)piperidin-4-yl)benzoyl)piperidin-4-yl)butyl)-3-(pyridin-3-yl)acrylamide]	0.00536
O=C(/C=C/c1cccnc1)NCCCCC1CCN(C(=O)c2ccc(N3CCNCC3)nn2)CC1 [SIAIS632004, (E)-N-(4-(1-(6-(piperazin-1-yl)pyridazine-3-carbonyl)piperidin-4-yl)butyl)-3-(pyridin-3-yl)acrylamide]	0.362

Continued, values first:

IC50 [µM]	SMILES
0.00398	O=C(/C=C/c1cccnc1)NCCCCC1CCN(C(=O)c2ccc(N3CCC(N4CCN(CCCCCC#Cc5cccc6c5CN(C5CCC(=O)NC5=O)C6=O)CC4)CC3)nn2)CC1 (stereo not drawn) [SIAIS632005, (E)-N-(4-(1-(6-(4-(4-(7-(2-(2,6-dioxopiperidin-3-yl)-1-oxoisoindolin-4-yl)hept-6-yn-1-yl)piperazin-1-yl)piperidin-1-yl)pyridazine-3-carbonyl)piperidin-4-yl)butyl)-3-(pyridin-3-yl)acrylamide]
0.00639	O=C(/C=C/c1cccnc1)NCCCCC1CCN(C(=O)c2ccc(N3CCC(N4CCN(CCCCCCC#Cc5cccc6c5CN(C5CCC(=O)NC5=O)C6=O)CC4)CC3)nn2)CC1 (stereo not drawn) [SIAIS632006, (E)-N-(4-(1-(6-(4-(4-(8-(2-(2,6-dioxopiperidin-3-yl)-1-oxoisoindolin-4-yl)oct-7-yn-1-yl)piperazin-1-yl)piperidin-1-yl)pyridazine-3-carbonyl)piperidin-4-yl)butyl)-3-(pyridin-3-yl)acrylamide]
0.00359	O=C(/C=C/c1cccnc1)NCCCCC1CCN(C(=O)c2ccc(N3CCC(N4CCN(CCCCSc5cccc6c5CN(C5CCC(=O)NC5=O)C6=O)CC4)CC3)nn2)CC1 (stereo not drawn) [SIAIS632007, (E)-N-(4-(1-(6-(4-(4-(4-((2-(2,6-dioxopiperidin-3-yl)-1-oxoisoindolin-4-yl)thio)butyl)piperazin-1-yl)piperidin-1-yl)pyridazine-3-carbonyl)piperidin-4-yl)butyl)-3-(pyridin-3-yl)acrylamide]
0.00835	O=C(/C=C/c1cccnc1)NCCCCC1CCN(C(=O)c2ccc(N3CCN(CCCCCC#Cc4cccc5c4CN(C4CCC(=O)NC4=O)C5=O)CC3)nn2)CC1 (stereo not drawn) [SIAIS632010, (E)-N-(4-(1-(6-(4-(7-(2-(2,6-dioxopiperidin-3-yl)-1-oxoisoindolin-4-yl)hept-6-yn-1-yl)piperazin-1-yl)pyridazine-3-carbonyl)piperidin-4-yl)butyl)-3-(pyridin-3-yl)acrylamide]
0.0093	O=C(/C=C/c1cccnc1)NCCCCC1CCN(C(=O)c2ccc(N3CCN(CCCCCCC#Cc4cccc5c4CN(C4CCC(=O)NC4=O)C5=O)CC3)nn2)CC1 (stereo not drawn) [SIAIS632011, (E)-N-(4-(1-(6-(4-(8-(2-(2,6-dioxopiperidin-3-yl)-1-oxoisoindolin-4-yl)oct-7-yn-1-yl)piperazin-1-yl)pyridazine-3-carbonyl)piperidin-4-yl)butyl)-3-(pyridin-3-yl)acrylamide]
0.00166	O=C(/C=C/c1cccnc1)NCCCCC1CCN(C(=O)c2ccc(N3CCN(CCCCSc4cccc5c4CN(C4CCC(=O)NC4=O)C5=O)CC3)nn2)CC1 (stereo not drawn) [SIAIS632012, (E)-N-(4-(1-(6-(4-(4-((2-(2,6-dioxopiperidin-3-yl)-1-oxoisoindolin-4-yl)thio)butyl)piperazin-1-yl)pyridazine-3-carbonyl)piperidin-4-yl)butyl)-3-(pyridin-3-yl)acrylamide]
0.00681	O=C(/C=C/c1cccnc1)NCCCCC1CCN(C(=O)c2ccc(N3CCN(C(=O)CNc4cccc5c4CN(C4CCC(=O)NC4=O)C5=O)CC3)cc2)CC1 (stereo not drawn) [SIAIS632014, (E)-N-(4-(1-(4-(4-((2-(2,6-dioxopiperidin-3-yl)-1-oxoisoindolin-4-yl)glycyl)piperazin-1-yl)benzoyl)piperidin-4-yl)butyl)-3-(pyridin-3-yl)acrylamide]
0.523	O=C(/C=C/c1cccnc1)NCCCCC1CCN(C(=O)c2ccc(N3CCN(C(=O)CCCNc4cccc5c4CN(C4CCC(=O)NC4=O)C5=O)CC3)cc2)CC1 (stereo not drawn) [SIAIS632015, (E)-N-(4-(1-(4-(4-(4-((2-(2,6-dioxopiperidin-3-yl)-1-oxoisoindolin-4-yl)amino)butanoyl)piperazin-1-yl)benzoyl)piperidin-4-yl)butyl)-3-(pyridin-3-yl)acrylamide]
